The values below come from patent US20150352108A1, “AMINO-PYRIMIDINE COMPOUNDS AS INHIBITORS OF TBK1 AND/OR IKK EPSILON” (Alzheimer's Institute of America, priority 2009, published 2015).

Test [1] concerns the target T1, IKKε (Homo sapiens, UniProt Q14164).
T1 construct: His-tag; made in house; host or cells: Sf9 insect cells
T1 sequence (Q14164 1-716): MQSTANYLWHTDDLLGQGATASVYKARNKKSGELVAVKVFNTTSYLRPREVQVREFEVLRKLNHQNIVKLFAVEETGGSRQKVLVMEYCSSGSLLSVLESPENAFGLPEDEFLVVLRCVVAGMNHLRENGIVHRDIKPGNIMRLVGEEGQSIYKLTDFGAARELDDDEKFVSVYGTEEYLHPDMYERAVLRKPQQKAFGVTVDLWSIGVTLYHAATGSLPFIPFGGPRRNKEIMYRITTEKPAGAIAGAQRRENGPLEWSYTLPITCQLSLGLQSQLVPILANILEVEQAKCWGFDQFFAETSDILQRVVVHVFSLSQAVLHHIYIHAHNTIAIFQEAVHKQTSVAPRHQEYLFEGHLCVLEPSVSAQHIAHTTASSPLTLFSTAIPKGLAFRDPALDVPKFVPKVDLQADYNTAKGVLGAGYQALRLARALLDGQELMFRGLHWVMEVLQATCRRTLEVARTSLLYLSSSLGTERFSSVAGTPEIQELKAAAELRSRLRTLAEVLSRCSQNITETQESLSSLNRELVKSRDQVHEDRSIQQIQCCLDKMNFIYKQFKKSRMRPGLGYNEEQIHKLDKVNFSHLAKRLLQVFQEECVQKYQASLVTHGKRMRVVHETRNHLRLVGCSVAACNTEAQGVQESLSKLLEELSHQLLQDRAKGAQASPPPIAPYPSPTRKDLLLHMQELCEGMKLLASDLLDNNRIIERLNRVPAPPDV
As to the kind of experiment: In-vitro IKKε kinase assay ([γ33]ATP filter-plate). The class given is biochemical. Conditions: text bins; read-out: IC50 for inhibition of the kinase activity of IKKε. The method in brief: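 His-tagged Sf9-expressed kinases at 0.1 or 0.02 μg/ml (TBK1) and 0.1 or 0.015 μg/ml (IKKε) for normal and sensitized formats, with myelin basic protein or casein substrate. ATP was at 2×Km (60 μM TBK1, 32 μM IKKε) plus 0.3 μCi [γ33]ATP. Reactions ran 30-45 min, were captured on P-81 filters, and counts were normalized to DMSO.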

The target of test [2] is T2, TBK1 (Homo sapiens, UniProt Q9UHD2).
T2 construct: His-tag; made in house; host or cells: Sf9 insect cells
T2 sequence (Q9UHD2 1-729): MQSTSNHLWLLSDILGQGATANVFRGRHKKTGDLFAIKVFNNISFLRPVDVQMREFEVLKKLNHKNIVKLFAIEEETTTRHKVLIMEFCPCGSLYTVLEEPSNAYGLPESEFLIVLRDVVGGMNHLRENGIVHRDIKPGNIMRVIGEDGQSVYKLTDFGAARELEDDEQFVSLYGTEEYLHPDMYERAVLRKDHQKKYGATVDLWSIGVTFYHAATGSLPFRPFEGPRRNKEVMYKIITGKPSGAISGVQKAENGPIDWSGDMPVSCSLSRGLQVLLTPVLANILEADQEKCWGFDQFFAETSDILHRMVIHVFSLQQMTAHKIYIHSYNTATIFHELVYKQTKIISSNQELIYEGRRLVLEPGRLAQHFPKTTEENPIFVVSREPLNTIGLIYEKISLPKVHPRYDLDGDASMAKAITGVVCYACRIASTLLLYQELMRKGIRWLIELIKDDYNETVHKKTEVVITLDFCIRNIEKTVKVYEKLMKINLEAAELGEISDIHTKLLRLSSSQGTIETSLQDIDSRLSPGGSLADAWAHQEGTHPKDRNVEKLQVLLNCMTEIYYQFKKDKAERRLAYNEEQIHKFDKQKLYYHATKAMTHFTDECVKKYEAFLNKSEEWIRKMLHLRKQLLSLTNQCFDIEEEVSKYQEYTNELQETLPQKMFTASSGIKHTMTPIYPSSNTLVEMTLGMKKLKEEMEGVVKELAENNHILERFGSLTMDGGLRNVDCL
As to the kind of experiment: In-vitro TBK1 kinase assay ([γ33]ATP filter-plate). The class given is biochemical. Conditions: text bins; read-out: IC50 for inhibition of the kinase activity of TBK1. How it is done: IKKε enzyme was produced as a His-tag fusion in Sf9 cells and used at a final concentration of […]. TBK1 enzyme was produced as a His-tag fusion in Sf9 cells and used at a final concentration of 0.1 μg/ml. Kinase reactions were carried out in reaction buffer using myelin basic protein (Millipore, Ballerica, Mass.) or casein (Sigma, St. Louis, Mo.) as substrate at an ATP concentration equal to twice the Km,ATP value for each enzyme, corresponding to 32 μM ATP for IKKε and 60 μM ATP for TBK1, in the presence of 0.3 μCi [γ^33]ATP (PerkinElmer, Waltham, Mass.). Final enzyme concentrations were 0.1 or 0.015 μg/ml (IKKε) and 0.1 or 0.02 μg/ml (TBK1), representing “normal” and “sensitized” assay conditions respectively. Test compounds (or DMSO solvent as a control) were added prior to initiation of the reactions. Reactions were terminated after 30-45 minutes by adding 3% phosphoric acid. Terminated reactions were transferred to P-81 cellulose phosphate filterplates (Whatman, Inc., Piscataway, N.J.) and washed with 1% phosphoric acid on a vacuum apparatus. After air drying, scintillant (PerkinElmer, Waltham, Mass.) was added and the plates were read on a PerkinElmer TopCount NXT instrument. Counts were normalized to DMSO controls after background subtraction.

Usually IC50 stands for the point on the concentration scale where inhibition reaches its midpoint.

`COc1ccc(-c2ccnc(Nc3ccc(OCCN4CCOCC4)c(OC)c3)n2)cc1C#N` [Example 273, 2-Methoxy-5-[2-({3-methoxy-4-[2-(morpholin-4-yl)ethoxy]phenyl}amino)pyrimidin-4-yl]benzonitrile]: the IC50 was 5 to 50 nM in test [1] and 10 to 100 nM in test [2]. With `COc1ccc(-c2ccnc(Nc3ccc(N4CCN(C(C)C)C(=O)C4)c(OC)c3)n2)cc1C#N` [Example 38, 2-Methoxy-5-[2-({3-methoxy-4-[3-oxo-4-(propan-2-yl)piperazin-1-yl]phenyl}amino)pyrimidin-4-yl]benzonitrile], the 50% inhibitory concentration (IC50) in test [1] was 5 to 50 nM; in test [2], less than 10 nM.

Regarding `N#Cc1cc(-c2ccnc(Nc3ccc(NC(=O)N4CCOCC4)cc3)n2)ccc1OC1CCOCC1` [Example 13, N-[4-({4-[3-cyano-4-(tetrahydro-2H-pyran-4-yloxy)phenyl]pyrimidin-2-yl}amino)phenyl] morpholin-4-carboxamide], the IC50 is 5 to 50 nM in test [1] and less than 10 nM in test [2]. Consider `C[C@H](O)C(=O)N1CCC(Oc2ccc(-c3ccnc(Nc4ccc(C(=O)NCCN(C)C)cc4)n3)cc2C#N)CC1` [compound 367, 4-({4-[3-cyano-4-({1-[(2S)-2-hydroxypropanoyl]piperidin-4-yl}oxy)phenyl]pyrimidin-2-yl}amino)-N-[2-(dimethylamino)ethyl]benzamide], for which the IC50 was less than 5 nM in test [1] and less than 10 nM in test [2].

Take `N#Cc1cc(-c2ccnc(Nc3ccc(N4CCOCC4)cc3)n2)ccc1OC1CCN(C(=O)CO)C1` (centres unmarked) [Example 96, 2-{[1-(Hydroxyacetyl)pyrrolidin-3-yl]oxy}-5-(2-{[4-(morpholin-4-yl)phenyl]amino}pyrimidin-4-yl)benzonitrile]: the IC50 in test [1] was less than 5 nM; in test [2], less than 10 nM. With `N#Cc1cc(-c2ccnc(Nc3ccc(N4CCOCC4)cc3)n2)ccc1OCCO` [Example 239, 2-(2-Hydroxyethoxy)-5-(2-{[4-(morpholin-4-yl)phenyl]amino}pyrimidin-4-yl)benzonitrile], the IC50 in test [1] is less than 5 nM; in test [2], less than 10 nM. As for `COc1ccc(-c2ccnc(Nc3ccc(CN4CCN(C)CC4)cc3)n2)cc1C#N` [compound 337, 2-Methoxy-5-[2-({4-[(4-methylpiperazin-1-yl)methyl]phenyl}amino)pyrimidin-4-yl]benzonitrile], the IC50 was in the range of 5 to 50 nM in test [1] and 10 to 100 nM in test [2]. Turning to `N#Cc1cc(-c2ccnc(Nc3ccc(N4CCOCC4)cc3)n2)ccc1OC1CCCCC1` [Example 165, 2-(Cyclohexyloxy)-5-(2-{[4-(morpholin-4-yl)phenyl]amino}pyrimidin-4-yl)benzonitrile], the half-inhibitory concentration (IC50) in test [1] was less than 5 nM; in test [2] it was less than 10 nM. For `CC(C)(COc1ccc(-c2ccnc(Nc3ccc(N4CCOCC4)cc3)n2)cc1C#N)C(=O)O` [compound 460, 3-[2-cyano-4-(2-{[4-(morpholin-4-yl)phenyl]amino}pyrimidin-4-yl)phenoxy]-2,2-dimethylpropanoic acid], in that order: 5 to 50 nM and 10 to 100 nM.

Take `N#Cc1cc(-c2ccnc(Nc3ccc(N4CCOCC4)cc3)n2)ccc1NC(=O)C1C[C@@H]1F` (stereo partly drawn) [Example 216, (2S)-N-[2-cyano-4-(2-{[4-(morpholin-4-yl)phenyl]amino}pyrimidin-4-yl)phenyl]-2-fluorocyclopropane-carboxamide]: the IC50 in test [1] was less than 5 nM; in test [2] it was less than 10 nM. For `N#Cc1cccc(-c2ccnc(Nc3ccc(OCCN4CCOCC4)cc3)n2)c1` [Example 283, 3-[2-({4-[2-(Morpholin-4-yl)ethoxy]phenyl}amino)pyrimidin-4-yl]benzonitrile], the 50% inhibitory concentration (IC50) in test [2] lay in the range of 10 to 100 nM. `COc1cc(Nc2nccc(-c3ccc(OC4CCN(C(=O)OC(C)(C)C)CC4)c(C#N)c3)n2)ccc1N1CCOCC1` [Example 263, tert-butyl 4-[2-cyano-4-(2-{[3-methoxy-4-(morpholin-4-yl)phenyl]amino}pyrimidin-4-yl)phenoxy]piperidine-1-carboxylate]: the IC50 in test [2] lay within 100 to 500 nM. `CC(C)C(=O)Nc1ccc(-c2ccnc(Nc3ccc(CCN4CCNCC4)cc3)n2)cc1C#N` [compound 451, N-{2-cyano-4-[2-({4-[2-(piperazin-1-yl)ethyl]phenyl}amino)pyrimidin-4-yl]phenyl}-2-methylpropanamide]: the IC50 in test [1] lay in the range of 50 to 500 nM. In the case of `N#Cc1cc(-c2ccnc(Nc3ccc(N4CCOCC4)cc3)n2)ccc1OCC1CCN(C(=O)C2(N)CC2)CC1` [Example 42, 2-({1-[(1-aminocyclopropyl)carbonyl]piperidin-4-yl}methoxy)-5-(2-{[4-(morpholin-4-yl)phenyl]amino}pyrimidin-4-yl)benzonitrile], in test [1], the IC50 lay in the range of 50 to 500 nM. As to `N#Cc1cc(-c2ccnc(Nc3ccc(C#Cc4cccnc4)cc3)n2)ccc1OC1CCOCC1` [compound 605, 5-(2-{[4-(Pyridin-3-ylethynyl)phenyl]amino}pyrimidin-4-yl)-2-(tetrahydro-2H-pyran-4-yloxy)benzonitrile], the IC50 in test [1] lay in the range of 5 to 50 nM. On to `N#Cc1cccc(-c2ccnc(Nc3ccc(Cl)cc3)n2)c1` [compound 340, 3-{2-[(4-Chlorophenyl)amino]pyrimidin-4-yl}benzonitrile], for which the half-maximal inhibitory concentration (IC50) in test [2] lay within 100 to 500 nM. For the molecule `N#Cc1cc(-c2ccnc(Nc3cccc(-n4ccnc4)c3)n2)ccc1OC1CCOCC1` [compound 560, 5-(2-{[3-(1H-Imidazol-1-yl)phenyl]amino}pyrimidin-4-yl)-2-(tetrahydro-2H-pyran-4-yloxy)benzonitrile], the IC50 in test [1] is less than 5 nM. As for `COc1ccc(-c2ccnc(Nc3cccc(S(=O)(=O)NCCCO)c3)n2)cc1C#N` [compound 306, 3-{[4-(3-Cyano-4-methoxyphenyl)pyrimidin-2-yl]amino}-N-(3-hydroxypropyl) benzenesulfonamide], the IC50 in test [1] lay within 50 to 500 nM. For the molecule `CC(C)C(=O)Nc1ccc(-c2ccnc(Nc3ccc(CN4CCN(CCO)CC4)cc3)n2)cc1C#N` [compound 426, N-(2-cyano-4-{2-[(4-{[4-(2-hydroxyethyl)piperazin-1-yl]methyl}phenyl)amino]pyrimidin-4-yl}phenyl)-2-methylpropanamide], in test [1], the IC50 fell in the range of 5 to 50 nM.

For `COc1ccc(-c2ccnc(Nc3cccc(N)c3)n2)cc1C#N` [compound 321, 5-{2-[(3-Aminophenyl)amino]pyrimidin-4-yl}-2-methoxybenzonitrile], the IC50 in test [1] fell in the range of 5 to 50 nM. The same measure, in the same setting: in the case of `CN(C)C1CCN(c2ccc(-c3ccnc(Nc4ccc(N5CCOCC5)cc4)n3)cc2C#N)C1` (centres unmarked) [Example 69] it was 50 to 500 nM; in that of `CC(=O)N1CCC(COc2ccc(-c3ccnc(Nc4ccc(N5CCOCC5)cc4)n3)cc2C#N)C1` (centres unmarked) [compound 469, 2-[(1-acetylpyrrolidin-3-yl)methoxy]-5-(2-{[4-(morpholin-4-yl)phenyl]amino}pyrimidin-4-yl)benzonitrile], 5 to 50 nM.
